Laboratory results as given in paper PMC7470127, “Design, synthesis, and evaluation of 1, 4-benzodioxan-substituted chalcones as selective and reversible inhibitors of human monoamine oxidase B” (Journal of Enzyme Inhibition and Medicinal Chemistry, 2020).
Where two headings read alike, the source gives them in different places.

Assays:
hMAO-B [1] = target: T1, hMAO-B (Homo sapiens, UniProt P27338); details: cited from earlier work
T1 sequence (P27338 1-520): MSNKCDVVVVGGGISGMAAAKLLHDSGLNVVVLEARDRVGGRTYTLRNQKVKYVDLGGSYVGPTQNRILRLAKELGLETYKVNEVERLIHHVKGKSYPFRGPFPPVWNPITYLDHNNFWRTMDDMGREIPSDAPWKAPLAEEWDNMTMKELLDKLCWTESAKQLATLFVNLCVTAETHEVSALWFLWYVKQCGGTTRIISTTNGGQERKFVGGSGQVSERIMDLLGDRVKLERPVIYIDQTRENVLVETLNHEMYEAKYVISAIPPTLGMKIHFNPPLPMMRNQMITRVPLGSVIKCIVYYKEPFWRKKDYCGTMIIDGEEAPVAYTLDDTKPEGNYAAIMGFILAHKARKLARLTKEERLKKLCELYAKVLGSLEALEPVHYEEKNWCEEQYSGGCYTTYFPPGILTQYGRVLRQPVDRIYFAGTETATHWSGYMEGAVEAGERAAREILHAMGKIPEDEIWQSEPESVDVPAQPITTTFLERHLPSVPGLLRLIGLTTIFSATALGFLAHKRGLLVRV

hMAO-A = target: T2, hMAO-A (Homo sapiens, UniProt P21397); assay: hMAO inhibition assay (Amplex Red fluorescence), hMAO-A, p-tyramine substrate; assay type: biochemical; details: recombinant hMAO-A
T2 sequence (P21397 1-527): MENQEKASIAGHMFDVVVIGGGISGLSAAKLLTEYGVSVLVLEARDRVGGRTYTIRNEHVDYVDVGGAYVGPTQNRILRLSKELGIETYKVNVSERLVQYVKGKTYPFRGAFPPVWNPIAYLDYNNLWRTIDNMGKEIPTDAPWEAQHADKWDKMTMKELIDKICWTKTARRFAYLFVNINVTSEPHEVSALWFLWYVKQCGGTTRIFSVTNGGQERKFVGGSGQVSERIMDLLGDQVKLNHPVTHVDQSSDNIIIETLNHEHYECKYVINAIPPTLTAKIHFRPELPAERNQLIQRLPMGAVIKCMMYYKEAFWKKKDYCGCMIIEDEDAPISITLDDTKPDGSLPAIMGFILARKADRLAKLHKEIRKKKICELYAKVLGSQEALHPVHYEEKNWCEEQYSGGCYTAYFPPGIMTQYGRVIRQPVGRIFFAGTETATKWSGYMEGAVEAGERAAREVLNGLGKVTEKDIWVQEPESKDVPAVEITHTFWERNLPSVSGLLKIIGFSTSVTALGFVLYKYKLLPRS
Protocol: The hMAO inhibition assay was performed as previously described. Adequate amounts of recombinant hMAO-A/B were acquired and adjusted to 12.5 µg/mL or 75 µg/mL for hMAO-A or hMAO-B, respectively, with sodium phosphate buffer (50 mM, pH 7.4). The test compounds were dissolved in DMSO as stock solutions (10 mM) and diluted with sodium phosphate buffer (50 mM, pH 7.4) to the corresponding concentrations. Then the test compounds (20 µL) and hMAO (80 µL) were incubated for 15 min at 37 °C in a flat, black-bottomed 96-well microtest plate in the dark. The reaction was initiated by adding Amplex Red reagent (200 µM, final concentration), horseradish peroxidase (2 U/mL, final concentration), and 2 mM p-tyramine for hMAO-A or 2 mM benzylamine (final concetration) for hMAO-B and incubated at 37 °C for 20 min. Activity was quantified in a multi detection microplate fluorescence reader (SpectraMax M5, Molecular Devices, USA) based on the fluorescence generated (excitation, 545 nm; emission, 590 nm). The specific fluorescence emission was calculated after subtraction of the background activity. The background activity was determined from wells containing all components except the hMAO isoforms, which were replaced by a sodium phosphate buffer solution. The percentage inhibition was calculated by the following expression: (1 – IFi/IFc) × 100, in which IFi and IFc are the fluorescence intensities obtained for hMAO in the presence and absence of inhibitors after subtracting the respective background. […]

hMAO-B [2] = target: T1, hMAO-B; assay: hMAO inhibition assay (Amplex Red fluorescence), hMAO-B, benzylamine substrate; assay type: biochemical; details: for Selectivity Index (SI): SI = IC50 (hMAO-A)/IC50 (hMAO-B); for fold higher inhibitory potency than 4: from IC50, versus compound 4; for inhibition at 1 µM: tested concentration 1 µM
Protocol: The hMAO inhibition assay was performed as previously described. […] The test compounds were dissolved in DMSO as stock solutions (10 mM) and diluted with sodium phosphate buffer (50 mM, pH 7.4) to the corresponding concentrations. […] The specific fluorescence emission was calculated after subtraction of the background activity. The background activity was determined from wells containing all components except the hMAO isoforms, which were replaced by a sodium phosphate buffer solution. The percentage inhibition was calculated by the following expression: (1 – IFi/IFc) × 100, in which IFi and IFc are the fluorescence intensities obtained for hMAO in the presence and absence of inhibitors after subtracting the respective background.

hMAO-B [3] = target: T1, hMAO-B; assay: Enzyme kinetic study (Lineweaver–Burk plots); assay type: biochemical; details: benzylamine 1, 2, 4 and 8 mM
Protocol: To evaluate the mode of MAO-B inhibition, the representative compound was evaluated in substrate-dependent kinetic experiments performed as previously described. Sets of Lineweaver–Burk plots were generated. The reciprocal MAO-B activity was plotted against the reciprocal substrate concentration. […] The enzymatic reactions and measurements were performed using human MAO-B assay conditions as described above for the determination of IC50 values.

hMAO-B [4] = target: T1, hMAO-B; assay: Reversibility study: time-dependent inhibition of hMAO-B; assay type: biochemical; details: for IC80: compounds used at the concentration of their IC80; for time after which the residual activity of hMAO-B began to increase: inhibitor at IC80; for reversibility of hMAO-B inhibition: inhibitor at IC80, activity followed for 120 min
Protocol: Control experiments without inhibitors were run simultaneously. The enzymatic activity was determined as described above. The percentage of enzyme activity was plotted against the incubation time to determine time-dependent enzyme inhibition.

BV2 microglia cells = assay: MTT assay, cytotoxicity; assay type: cell-based; details: 5 and 25 µM for 24 h
Protocol: The 3–(4, 5-dimethylthiazol-2-yl)-2,5-diphenyltetrazolium (MTT) assay was performed as previously described. BV2 Cells were plated at 5000 cells per well and allowed to grow at 37 °C overnight. Then the cells were treated with various concentrations of the tested compounds for 24 h at 37 °C in a humidified atmosphere with 5% CO2, 0.5% DMSO acted as the vehicle control. The cell culture medium was then removed, followed by the addition of fresh cell culture medium containing 5.0 g/L MTT (20 µL/per well) and incubation at 37 °C in a humidified, 5% CO2 atmosphere for 4 h. After this incubation period, the cell culture medium was removed and the formed formazan crystals dissolved in 100% DMSO. The absorbance was measured at 570 nm in a multi-well plate reader. The results are expressed as % relative cell viability compared to DMSO vehicle control.

[5] = recombinant hMAO-B, read-out: hMAO-B IC50

IC50 (hMAO-A) [nM]	Selectivity Index (SI) (hMAO-B [2])	IC50 (hMAO-B [2]; [5]) [nM]	inhibition at 1 µM (hMAO-B [2]) [%]	IC80 (hMAO-B [4]) [nM]	time after which the residual activity of hMAO-B began to increase (hMAO-B [4]) [min]	reversibility of hMAO-B inhibition (hMAO-B [4])	melting point [°C]	Structure (SMILES)	also measured
–	–	–	–	–	–	–	–	Cc1ccc(C(=O)/C=C/c2ccc(F)c(Br)c2)s1 [Compound 4h]	inhibition mode of hMAO-B (hMAO-B [1]; ref [13]): reversible inhibition
–	–	–	–	–	–	–	–	COc1ccc(C(=O)/C=C/c2ccc(Cl)cc2)c(O)c1 [Compound 5i]	inhibition mode of hMAO-B (hMAO-B [1]; ref [12]): irreversible inhibition
–	–	–	–	–	–	–	–	Brc1cccc(COc2ccc3c(c2)OCCO3)c1 [Compound 7c]	inhibition mode of hMAO-B (hMAO-B [1]; ref [17]): reversible inhibition
> 40000	>727	55 ± 2	93.3	280	20	reversible	119.3 to 120.4	O=C(/C=C/c1ccc2c(c1)OCCO2)c1cccc(Br)c1 [Compound 16, (E)-1-(3-bromophenyl)-3-(2,3-dihydrobenzo[b][1,4]dioxin-6-yl)prop-2-en-1-one]	fold higher inhibitory potency than 4 (hMAO-B [2]): 1.7–4 fold; mode of hMAO-B inhibition (hMAO-B [3]): competitive; Cell viability of BV2 cells (BV2 microglia cells): no considerable decrease in cellular viability
> 40000	>702	57 ± 4	93.4	280	20	reversible	125.5 to 127	O=C(/C=C/c1ccc2c(c1)OCCO2)c1cccc(Cl)c1 [Compound 17, (E)-1-(3-chlorophenyl)-3-(2,3-dihydrobenzo[b][1,4]dioxin-6-yl)prop-2-en-1-one]	fold higher inhibitory potency than 4 (hMAO-B [2]): 1.7–4 fold; mode of hMAO-B inhibition (hMAO-B [3]): competitive; Cell viability of BV2 cells (BV2 microglia cells): no considerable decrease in cellular viability
> 40000	>125	320 ± 50	78.4	–	–	–	136.2 to 137.3	O=C(/C=C/c1ccc2c(c1)OCCO2)c1cc(Cl)ccc1O [Compound 25, (E)-1-(5-chloro-2-hydroxyphenyl)-3-(2,3-dihydrobenzo[b][1,4]dioxin-6-yl)prop-2-en-1-one]	–
> 40000	–	–	62.3	–	–	–	155.7 to 156.1	O=C(/C=C/c1ccc2c(c1)OCCO2)c1ccc(Cl)cc1O [Compound 26, (E)-1-(4-chloro-2-hydroxyphenyl)-3-(2,3-dihydrobenzo[b][1,4]dioxin-6-yl)prop-2-en-1-one]	–
> 40000	>143	280 ± 2	80.4	–	–	–	111.8 to 112.6	O=C(/C=C/c1ccc2c(c1)OCO2)c1cccc(Br)c1 [Compound 27, (E)-3-(benzo[d][1,3]dioxol-5-yl)-1–(3-bromophenyl)prop-2-en-1-one]	–
–	–	–	–	200	–	–	–	C#CCN[C@@H]1CCc2ccccc21 [rasagiline, reference compound]	–
–	–	–	–	60	15	reversible	–	C[C@H](NCc1ccc(OCc2cccc(F)c2)cc1)C(N)=O [safinamide, reference compound]	–

Structure (SMILES)	IC50 (hMAO-A) [nM]	Selectivity Index (SI) (hMAO-B [2])	IC50 (hMAO-B [2]; [5]) [nM]	inhibition at 1 µM (hMAO-B [2]) [%]	IC80 (hMAO-B [4]) [nM]	time after which the residual activity of hMAO-B began to increase (hMAO-B [4]) [min]	reversibility of hMAO-B inhibition (hMAO-B [4])	melting point [°C]	also measured
O=C(/C=C/c1ccc2c(c1)OCCO2)c1ccc(F)c(Br)c1 [Compound 22, (E)-1-(3-bromo-4-fluorophenyl)-3-(2,3-dihydrobenzo[b][1,4]dioxin-6-yl)prop-2-en-1-one]	> 40000	–	–	95.6	190	20	reversible	–	IC50 (hMAO-B [2]): 26 ± 1 nM; mode of hMAO-B inhibition (hMAO-B [3]): competitive; Cell viability of BV2 cells (BV2 microglia cells): no considerable decrease in cellular viability
